Reference: patent publication US20230011869A1 (Hoffmann-La Roche Inc., priority 2018, published 2023)
Counter-ions that a name gives are not always drawn.

What follows are compounds tested on Acinetobacter baumannii ATCC17978 (assay: Antimicrobial susceptibility testing: 90% growth inhibitory concentration (IC90) determination, Iso-Sensitest broth). Settings: 90% growth inhibitory concentration, Acinetobacter baumannii ATCC17978, Iso-Sensitest broth, OD 600 nm over 16 h; read-out: ATCC17978 IC90.
Format: cell-based
Summary of the method: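 A. baumannii ATCC17978 grown in Iso-Sensitest broth across 10 compound concentrations at 35±2 °C.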
With COc1ccc(-c2cnc3c(Nc4ccc(C(=O)N5CCC(C(=O)NCCN6CCC6)CC5)c(C)c4)nccn23)cc1F [Example 61, N-(2-(azetidin-1-yl)ethyl)-1-(4-((3-(3-fluoro-4-methoxyphenyl)imidazo[1,2-a]pyrazin-8-yl)amino)-2-methylbenzoyl)piperidine-4-carboxamide] the IC90 was 0.18 µM. With COc1ccc(-c2cnc3c(Nc4ccc(C(=O)N5CCC(C(=O)NCCCN6CCC6)CC5)c(C)c4)nccn23)cc1F [Example 62, N-(3-(azetidin-1-yl)propyl)-1-(4-((3-(3-fluoro-4-methoxyphenyl)imidazo[1,2-a]pyrazin-8-yl)amino)-2-methylbenzoyl)piperidine-4-carboxamide] the IC90 was 0.16 µM. With COc1ccc(-c2cnc3c(Nc4ccc(C(=O)N5CCC(C(=O)N[C@@H]6CCNC6)CC5)c(C)c4)nccn23)c(F)c1F [Example 63, (R)-1-(4-((3-(2,3-difluoro-4-methoxyphenyl)imidazo[1,2-a]pyrazin-8-yl)amino)-2-methylbenzoyl)-N-(pyrrolidin-3-yl)piperidine-4-carboxamide hydrochloride] the IC90 was 0.17 µM. COc1ccc(-c2cnc3c(Nc4ccc(C(=O)N5CCN(C(=O)CN(C)C)CC5)c(C)c4)nccn23)cc1F [Example 64, 2-(dimethylamino)-1-(4-(4-((3-(3-fluoro-4-methoxyphenyl)imidazo[1,2-a]pyrazin-8-yl)amino)-2-methylbenzoyl)piperazin-1-yl)ethanone] showed an IC90 of 0.27 µM. COc1ccc(-c2cnc3c(Nc4ccc(C(=O)N5CCC(C(=O)NCC6CNC6)CC5)c(C)c4)nccn23)cc1F [Example 65, N-(azetidin-3-ylmethyl)-1-(4-((3-(3-fluoro-4-methoxyphenyl)imidazo[1,2-a]pyrazin-8-yl)amino)-2-methylbenzoyl)piperidine-4-carboxamide] showed an IC90 of 0.25 µM. Cc1cc(Nc2nccn3c(-c4ccc(OC(F)F)cc4)cnc23)ccc1C(=O)N1CCN(C2=NCCN2)CC1 [Example 67] was tested, and the IC90 was 0.12 µM. With Cc1cc(Nc2nccn3c(-c4ccc(OC(F)F)cc4)cnc23)ccc1C(=O)N1CCC(C(=O)NCC2CNC2)CC1 [Example 68] the IC90 was 0.19 µM. Compound Cc1cc(Nc2nccn3c(-c4ccc(OC(F)F)cc4)cnc23)ccc1C(=O)N1CCN(C(=N)N)CC1 [Example 69] has an IC90 of 0.11 µM. COc1ccc(-c2cnc3c(Nc4ccc(C(=O)N5CCC(O)(CN)CC5)c(C)c4)nccn23)cc1F [Example 71, [4-(aminomethyl)-4-hydroxypiperidin-1-yl]-[4-[[3-(3-fluoro-4-methoxyphenyl)imidazo[1,2-a]pyrazin-8-yl]amino]-2-methylphenyl]methanone;2,2,2-trifluoroacetic acid] gave an IC90 of 0.35 µM. Cc1cc(Nc2nccn3c(-c4ccc(OC(F)F)cc4)cnc23)ccc1C(=O)N1CCC(Cc2cnc[nH]2)CC1 [Example 72, (4-((1H-imidazol-4-yl)methyl)piperidin-1-yl)(4-((3-(4-(difluoromethoxy)phenyl)imidazo[1,2-a]pyrazin-8-yl)amino)-2-methylphenyl)methanone] showed an IC90 of 0.26 µM. In the case of COc1ccc(-c2cnc3c(Nc4ccc(C(=O)N5CCN(C6CNC6)CC5)c(C)c4)nccn23)cc1F [Example 73, (4-(azetidin-3-yl)piperazin-1-yl)(4-((3-(3-fluoro-4-methoxyphenyl)imidazo[1,2-a]pyrazin-8-yl)amino)-2-methylphenyl)methanone hydrochloride], the IC90 is reported as 0.33 µM. Work on Cc1cc(Nc2nccn3c(-c4ccc(OC(F)F)cc4)cnc23)ccc1C(=O)N1CCN(C(N)=O)CC1 [Example 74, 4-(4-((3-(4-(difluoromethoxy)phenyl)imidazo[1,2-a]pyrazin-8-yl)amino)-2-methylbenzoyl)piperazine-1-carboxamide] yielded an IC90 of 0.071 µM. Cc1cc(Nc2nccn3c(-c4ccc(OCC#N)c(F)c4F)cnc23)ccc1C(=O)N1CCC(CNC(=O)CO)CC1 [Example 91, N-[[1-[4-[[3-[4-(cyanomethoxy)-2,3-difluoro-phenyl]imidazo[1,2-a]pyrazin-8-yl]amino]-2-methyl-benzoyl]-4-piperidyl]methyl]-2-hydroxy-acetamide] gave an IC90 of 0.5 µM. Work on Cc1cc(Nc2nccn3c(-c4ccc(OCC#N)c(F)c4F)cnc23)ccc1C(=O)N1CCC(C(=O)N2CCNC(CO)C2)CC1 (centres unmarked) [Example 95, 2-[2,3-difluoro-4-[8-[4-[4-[3-(hydroxymethyl)piperazine-1-carbonyl]piperidine-1-carbonyl]-3-methyl-anilino]imidazo[1,2-a]pyrazin-3-yl]phenoxy]acetonitrile;2,2,2-trifluoroacetic acid] yielded an IC90 of 0.089 µM. For N#CCOc1ccc(-c2cnc3c(Nc4ccc(C(=O)N5CCC(C(=O)OCC6CNCCN6)CC5)c(Cl)c4)nccn23)c(Cl)c1F (centres unmarked) [Example 96, piperazin-2-ylmethyl 1-[2-chloro-4-[[3-[2-chloro-4-(cyanomethoxy)-3-fluoro-phenyl]imidazo[1,2-a]pyrazin-8-yl]amino]benzoyl]piperidine-4-carboxylate trifluoroacetate], the IC90 was 0.29 µM. For Cc1cc(Nc2nccn3c(-c4ccc(OCC#N)c(F)c4Cl)cnc23)ccc1C(=O)N1CCC(C(=O)N2CCNC(CO)C2)CC1 (centres unmarked) [Example 97, 2-[3-chloro-2-fluoro-4-[8-[4-[4-[3-(hydroxymethyl)piperazine-1-carbonyl]piperidine-1-carbonyl]-3-methyl-anilino]imidazo[1,2-a]pyrazin-3-yl]phenoxy]acetonitrile trifluoroacetate], the IC90 was 0.096 µM. With N#CCOc1ccc(-c2cnc3c(Nc4ccc(C(=O)N5CCC(C(=O)OCC6CNCCN6)CC5)c(Cl)c4)nccn23)c(F)c1F (centres unmarked) [Example 98, piperazin-2-ylmethyl 1-[2-chloro-4-[[3-[4-(cyanomethoxy)-2,3-difluoro-phenyl]imidazo[1,2-a]pyrazin-8-yl]amino]benzoyl]piperidine-4-carboxylate trifluoroacetate] the IC90 was 0.085 µM. With COc1ccc(-c2cnc3c(Nc4ccc(C(=O)N5CCC(C(=O)NCC(N)CO)CC5)c(C)c4)nccn23)cc1F (centres unmarked) [Example 101, N-(2-amino-3-hydroxypropyl)-1-(4-((3-(3-fluoro-4-methoxyphenyl)imidazo[1,2-a]pyrazin-8-yl)amino)-2-methylbenzoyl)piperidine-4-carboxamide hydrochloride] the IC90 was 0.14 µM. CNCC(=O)NCC1CCN(C(=O)c2ccc(Nc3nccn4c(-c5ccc(OCC#N)c(F)c5F)cnc34)cc2C)CC1 [Example 102, N-[[1-[4-[[3-[4-(cyanomethoxy)-2,3-difluoro-phenyl]imidazo[1,2-a]pyrazin-8-yl]amino]-2-methyl-benzoyl]-4-piperidyl]methyl]-2-(methylamino)acetamide] was tested, and the IC90 was 0.14 µM. COc1ccc(-c2cnc3c(Nc4ccc(C(=O)N5CCC(CNC(C)=O)CC5)c(C)c4)nccn23)cc1 [Example 103, N-((1-(4-((3-(4-methoxyphenyl)imidazo[1,2-a]pyrazin-8-yl)amino)-2-methylbenzoyl)piperidin-4-yl)methyl)acetamide] gave an IC90 of 0.15 µM. Cc1cc(Nc2nccn3c(-c4ccc(OC(C)(C)C#N)c(F)c4F)cnc23)ccc1C(=O)N1CCC(CN)CC1 [Example 105, 2-[4-[8-[4-[4-(aminomethyl)piperidine-1-carbonyl]-3-methyl-anilino]imidazo[1,2-a]pyrazin-3-yl]-2,3-difluoro-phenoxy]-2-methyl-propanenitrile; formic acid] showed an IC90 of 3.6 µM. Work on COc1cc(F)c(-c2cnc3c(Nc4ccc(C(=O)N5CCC(CN)CC5)c(C)c4)nccn23)cc1F [Example 106, (4-(aminomethyl)piperidin-1-yl)(4-((3-(2,5-difluoro-4-methoxyphenyl)imidazo[1,2-a]pyrazin-8-yl)amino)-2-methylphenyl)methanone] yielded an IC90 of 0.25 µM. For COc1cc(F)c(-c2cnc3c(Nc4ccc(C(=O)N5CCC(CN)CC5)c(C)c4)nccn23)cc1Cl [Example 107, (4-(aminomethyl)piperidin-1-yl)(4-((3-(5-chloro-2-fluoro-4-methoxyphenyl)imidazo[1,2-a]pyrazin-8-yl)amino)-2-methylphenyl)methanone], the IC90 was 0.29 µM. Cc1cc(Nc2nccn3c(-c4ccc(Cl)cc4Cl)cnc23)ccc1C(=O)N1CCC(CN)CC1 [Example 108, (4-(aminomethyl)piperidin-1-yl)(4-((3-(2,4-dichlorophenyl)imidazo[1,2-a]pyrazin-8-yl)amino)-2-methylphenyl)methanone] was tested, and the IC90 was 1.3 µM. Compound COc1ccc(-c2cnc3c(Nc4ccc(C(=O)N5CCC(CN)CC5)c(C)c4)nccn23)c(Cl)c1 [Example 109, (4-(aminomethyl)piperidin-1-yl)(4-((3-(2-chloro-4-methoxyphenyl)imidazo[1,2-a]pyrazin-8-yl)amino)-2-methylphenyl)methanone] has an IC90 of 0.51 µM.

Same assay, conditions: Acinetobacter baumannii, ATCC17978, 16 h, read-out: ATCC17978 IC90, 90% growth inhibitory concentration, Acinetobacter baumannii ATCC17978, Iso-Sensitest broth, OD 600 nm over 16 h
COc1ccc(-c2cnc3c(Nc4ccc(C(=O)N5CCC(C(=O)N[C@@H]6CCNC6)CC5)c(C)c4)nccn23)cc1F [Example 59, (R)-1-(4-((3-(3-fluoro-4-methoxyphenyl)imidazo[1,2-a]pyrazin-8-yl)amino)-2-methylbenzoyl)-N-(pyrrolidin-3-yl)piperidine-4-carboxamide 2,2,2-trifluoroacetate] was tested, and the IC90 was 0.23 µM. Work on COc1ccc(-c2cnc3c(Nc4ccc(C(=O)N5CCC(C(=O)NCC6CNC6)CC5)c(C)c4)nccn23)c(F)c1F [Example 75, hydrochloride] yielded an IC90 of 0.16 µM. In the case of COc1ccc(-c2cnc3c(Nc4ccc(C(=O)N5CCC(CN)CC5)c(C)c4)nccn23)c(Cl)c1F [Example 104, [4-(aminomethyl)-1-piperidyl]-[4-[[3-(2-chloro-3-fluoro-4-methoxy-phenyl)imidazo[1,2-a]pyrazin-8-yl]amino]-2-methyl-phenyl]methanone hydrochloride], the IC90 is reported as 0.18 µM.

Same assay, conditions: read-out: ATCC17978 IC90; 90% growth inhibitory concentration, Acinetobacter baumannii ATCC17978, Iso-Sensitest broth, OD 600 nm over 16 h; 2,2,2-trifluoroacetate
Work on COc1ccc(-c2cnc3c(Nc4ccc(C(=O)N5CCC(C(=O)NCC6CNC6)CC5)c(C)c4)nccn23)cc1F [Example 60, N-(azetidin-3-ylmethyl)-1-(4-((3-(3-fluoro-4-methoxyphenyl)imidazo[1,2-a]pyrazin-8-yl)amino)-2-methylbenzoyl)piperidine-4-carboxamide 2,2,2-trifluoroacetate] yielded an IC90 of 0.21 µM.
